Bridge positions count the residues as written; N and C are the ends. Ends that are not written are not given here.
Key:
[1] = test system: CFA-induced thermal hyperalgesia; conditions: rats; cited from earlier work
Description: An inhibition of ASIC3 was reported to be an attractive approach to producing analgesia. […] Other nonspecific substances can also influence ASIC3 activity. […] Several ligands with inhibitory properties were found for this receptor, each of which was able to induce analgesia in animal tests. The most well-known inhibitor APETx2 in various studies has been tested on models of acid-induced muscle pain model, CFA-induced inflammatory pain model (at doses of 0.07, 0.22 and 2.2 µM). Ugr9-1 was studied in models of CFA-induced thermal hyperalgesia and acetic acid writhing test (at doses of 0.5, 0.1, and 0.01 mg/kg). […] The nonspecific actions on other cellular targets and the changes of ASIC3 involvement in the inflammatory process induced by the high antagonists’ concentration for 2 h are suspected. We conclude that the inhibition of both components of ASIC3 currents could be beneficial but could be reversed by hormesis in high doses and during a long exposure to ...

ASIC3 = conditions: cited from earlier work
Text: (§1) An inhibition of ASIC3 was reported to be an attractive approach to producing analgesia. […] Other nonspecific substances can also influence ASIC3 activity.

animal models of pain = conditions: cited from earlier work
[2] = test system: proton-gated currents in DRG neurons; parameters: method as in PMID 25395088; conditions: cited from earlier work
[3] = test system: voltage-gated Na^+-channels; parameters: method as in PMID 22648244; conditions: cited from earlier work
ASIC1a = conditions: cited from earlier work
Text: as §1

ASIC1b = conditions: cited from earlier work
Text: as §1

human ASIC3 = biological target: T1, human ASIC3 (Homo sapiens, UniProt Q9UHC3); assay: Inhibition of transient hASIC3 current, two-electrode voltage clamp, Xenopus laevis oocytes; format: cell-based
T1 construct: host or cells: Xenopus laevis oocytes (cRNA injection)
T1 sequence (Q9UHC3 1-531): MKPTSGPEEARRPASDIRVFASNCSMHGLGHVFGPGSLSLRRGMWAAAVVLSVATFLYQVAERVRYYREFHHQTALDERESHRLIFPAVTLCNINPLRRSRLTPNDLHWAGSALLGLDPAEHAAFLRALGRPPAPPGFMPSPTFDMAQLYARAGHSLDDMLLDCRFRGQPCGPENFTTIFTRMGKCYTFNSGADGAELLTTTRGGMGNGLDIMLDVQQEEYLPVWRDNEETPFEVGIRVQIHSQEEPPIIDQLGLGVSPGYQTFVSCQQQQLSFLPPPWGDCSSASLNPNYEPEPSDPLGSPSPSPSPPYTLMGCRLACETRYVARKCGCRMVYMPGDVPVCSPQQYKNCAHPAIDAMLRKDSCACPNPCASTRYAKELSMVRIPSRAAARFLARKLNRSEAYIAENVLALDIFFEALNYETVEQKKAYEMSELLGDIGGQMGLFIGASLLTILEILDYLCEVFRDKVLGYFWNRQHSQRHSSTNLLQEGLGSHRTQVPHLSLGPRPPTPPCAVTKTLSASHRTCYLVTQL
Description: The activity of ligands was checked on human ASIC3 (hASIC3) channels expressed in Xenopus laevis oocytes. […] Two different protocols were used to reveal the effects of ligands on sustained and transient components of acid-induced hASIC3 currents. The influence of the compounds on the transient current amplitude was estimated after preincubation for 15 s before the activation in a low alkali bath solution (pH 7.8), which ensured an absence of steady-state desensitization for the transient current (Figure 1A). The compounds’ inhibition effectiveness was calculated using the value of maximal amplitudes. […] The inhibitory effect was concentration-dependent and fit well using a logistic equation.
Figure 1 Comparison of ligands’ antagonistic effects on hASIC3 channels. Whole-cell currents were induced by pH drops and recorded at the holding potential −50 mV. (A) Effect of ligands on the transient component of current at conditioning pH 7.8. The control trace is shown first; (B) Effect of ligands on the sustained component at conditioning pH 7.3. The black line is the control trace, and the red line is the trace of activation in the presence of a ligand. Dose-response curves for transient (C) and sustained (D) currents’ inhibitions are shown. Data are shown as mean ± SEM (n = 4–6) and fitted with the logistic equation (solid lines).
X. laevis oocytes were removed surgically and defolliculated by collagenase (Sigma-Aldrich, Moscow, Russia). Oocytes were injected with 2.5 to 10 ng of human ASIC3 cRNA (AF057711.1). The cRNA transcripts were synthesised from a NaeI-linearized ASIC3 cDNA template (pcDNA3.1+humanASIC3 subcloned from clone EX-Q0260- B02 (GeneCopoeia, Inc., Rockville, MD USA) using a HiScribe T7 High Yield RNA Synthesis Kit (New England Biolabs, Ipswich, MA, USA) according to the manufacturer’s protocol for capped transcripts. After the injection, oocytes were kept for 3 to 6 days at 19° in a ND-96 medium containing (in mM) 96 NaCl, 2 KCl, 1.8 CaCl2, 1 MgCl2, and 5 HEPES titrated to pH 7.4 with NaOH supplemented with gentamycin (50 µg/mL). Two-electrode voltage clamp recordings were performed using a GeneClamp 500 amplifier (Axon Instruments, Union City, CA, USA), and the data were filtered at 20 Hz and digitized at 100 Hz by an AD converter L780 (LCard, Moscow, Russia) using in-house software. To induce transient and/or sustained currents, two different protocols with different conditioning pH were used. Microelectrodes were filled with a 3 M KCl solution. The working buffer solution was ND-96 titrated by NaOH to pH 7.8 or 7.3. The solution for the pH shift was constructed based on the ND-96 solution, in which 5 mM HEPES was replaced with 10 mM acetic acid (pH 4.0) or 10 mM MES (pH 5.5) in a supplementary 0.1% BSA solution. The duration of the activation pulses was 3.5 s.
The analysis of the electrophysiological data was performed using the OriginPro 8.6 programme.

mice = assay: Open field test; format: in vivo, CD-1 mice; conditions: 1 mg/kg intramuscular, 4 h before; n = 6–7
Description: An open field test was carried out on mice to estimate the possible sedative effects of compounds administration. No statistically significant changes were detected between ASIC3 antagonist-treated groups and the control animals group in 5-min observations of 12 parameters.
Figure 2 Open field experiments on mice. Administration of compounds at a 1 mg/kg dose intramuscularly was done 4 h before of the measurements. (A) Travelling distance and (B) locomotion activity presented as mean ± SEM for 5-min recording period (n = 6–7).
Adult male CD-1 mice (Animal Breeding Facility Branch of Shemyakin-Ovchinnikov Institute of Bioorganic Chemistry, Russian Academy of Sciences, Pushchino, Russia) weighing 20–25 g were used. Animals that originally passed clinical examination that confirmed no deviations in health were divided into groups (at least eight male mice per group) using the principle of randomization. The average body weight of animals in each group was not statistically different between groups. Animals were housed at room temperature (23 ± 2 °C) and subjected to a 12-h light-dark cycle with food and water available ad libitum. All experiments were performed after receiving approval from the Animal Care and Use Committee of the Branch of the Institute of Bioorganic Chemistry, Russian Academy of Sciences (IBCh RAS) (Pushchino, Russia Federation). The samples were administered intramuscularly 2 h before testing (4 h in the open field test). The initial dose of 1 mg/kg was investigated for all samples, which was further reduced 5, 50, and 500 times for peptides.
In the locomotion measurements, exploration and anxiety were evaluated in the motor activity test on a computerized TSE Multi Conditioning System (TSE Systems GmbH, Bad Homburg, Germany). Four hours after the administration of the sample, the measurement was made, which lasted for 3 min. […]
The data significance in animal tests was determined by an analysis of variance followed by a Tukey’s test. […]

hERG channels = conditions: cited from earlier work
Description: Moreover, APETx2 potentiates rat ASIC1b and ASIC2a at concentrations of 3–10 µM (30–100-fold higher than its ASIC3 inhibitory concentration), which may have implications for its use in in vivo experiments ...

Molecule: CC(C)C1c2cc(C3CC3c3ccc4cc(C(=N)N)ccc4c3)ccc2CCN1C (stereo not drawn) [A-317567]
- Analgesic effect, CFA inflammatory thermal hyperalgesia [1]: produced an analgesic effect
- Inhibition of ASIC3 sustained and transient currents (ASIC3): blocked ASIC3’s sustained and transient currents

Molecule: COc1cc2c(cc1OC)[C@@H]1Cc3ccc(OC)c(OC)c3CN1CC2 [Levo-tetrahydropalmatine, reference compound]
- Nociceptive response to intraplantar acetic acid (animal models of pain; rats): inhibited the nociceptive response to intraplantar acetic acid injections
- Effect on amplitude of proton-gated currents [2]: decreased the amplitude of proton-gated currents

Molecule: N=C(N)NC(=O)c1nc(Cl)c(N)nc1N [amiloride]
- Inhibition of ASICs / ASIC3 (ASIC3): nonspecific inhibitory effect on ASICs

Molecule: COc1ccc2ccc(=O)oc2c1CC=C(C)C [osthol]
- Inhibition of ASIC3 (ASIC3): inhibit ASIC3
- Block of voltage-gated Na+-channels [3]: block voltage-gated Na^+-channels

Molecule: O=C(O)c1ccccc1O [salicylic acid]
- Inhibition of ASIC3 / ASICs currents (ASIC3; sensory neurons and heterologous-expressed ASIC3): inhibit ASICs currents directly on sensory neurons and heterologous-expressed ASIC3 channels

Molecule: CCCCNc1ccc(C(=O)OCCN(C)C)cc1 [tetracaine]
- Inhibition of ASIC1a currents (ASIC1a): inhibited the ASIC1a and ASIC1b currents
- Inhibition of ASIC1b currents (ASIC1b): inhibited the ASIC1a and ASIC1b currents
- Inhibition of transient ASIC3 currents (ASIC3; dependence on extracellular pH): inhibit the transient ASIC3 currents in a concentration-dependent manner

Molecule: GTACSCGNSKGIYWFYRPSCPTDRGYTGSCRYFLGTCCTPAD (disulfide 4-37, 6-30, 20-38) [APETx2]
- IC50 (human ASIC3): 344 ± 80 nM
- Travelled distance, time spent freezing, distance in the central area versus control (mice): each of these differences was nonsignificant
- Inhibition of hERG channels (hERG channels): reducing the maximal current amplitude and shifting the voltage dependence of activation to more positive potentials

Molecule: psalmotoxin 1 (EDCIPKWKGCVNRHGDCCEGLECWKRRRSFEVCVPKTPKT; UniProt P60514 1-40, looked up) [reference compound]
- Analgesic effect by blockade of ASIC1a in CNS (animal models of pain; CNS): activation of the endogenous enkephalin pathway and potent analgesic effects

Reference: article PMC6316600, “Analgesic Activity of Acid-Sensing Ion Channel 3 (ASIС3) Inhibitors: Sea Anemones Peptides Ugr9-1 and APETx2 versus Low Molecular Weight Compounds” (Marine Drugs, 2018)
